Laboratory results from patent publication US20250230159A1, “FUSED HETEROCYCLIC COMPOUNDS AS MODULATORS OF RAS SIGNALLING” (Shenzhen Ionova Life Science Co., Ltd., priority 2022, published 2025).
Like-named read-outs stand apart in the source and are kept apart here.

Columns and labels:
[1] = target: KRAS-G12C/SOS1 interaction (Homo sapiens (Human), UniProt Q07889); experiment: Protein-Protein Interaction (PPI) assay, SOS1-KRAS binding assay kit (HTRF)
Procedure: This Example illustrates that exemplary compounds of the present invention blockade the interaction of SOS1 to KRAS protein.
The ability of a compound of Formula (I) to block the interaction of SOS1 to KRAS was measured using a SOS1-KRAS binding assay kit (CAT #63ADK000CB16PEG, Cisbio). Utilizing HTRF (Homogeneous Time-resolved Fluorescence) technology, the assay enables simple and rapid characterization of compound and antibody blockers in a high throughput format. The interaction between Tag1-SOS1 and Tag2-KRAS-G12C is detected by using anti-Tag1-Terbium antibody (HTRF donor) and anti-Tag2-XL665 antibody (HTRF acceptor). When the donor and acceptor antibodies are brought into close proximity due to SOS1 and KRAS-G12C binding, excitation of the donor antibody triggers fluorescent resonance energy transfer (FRET) towards the acceptor antibody, which in turn emits specifically at 665 nm. This specific signal is directly proportional to the extent of KRAS-G12C/SOS1 interaction.
The assay was carried according to the manufacturer's instructions. Compounds at an initial concentration of 10 mM in DMSO were first serially diluted on a 384-well plate using assay buffer at a ratio of 1:3 for a total of 9 concentrations with each of a volume of 20 μL. Blank buffer was included as the negative control. The final compound solution was in the buffer solution with 1% DMSO. Then, in each well of a 384-well plate, a solution of 2 μL compound solution, 4 μL tagged SOS1 and KRAS (G12C) protein stocks, respectively, and 10 μM GTP was incubated for 15 min. 10 μL mixture of […] antibody and anti-Tag1-Terbium antibody was introduced to each individual well. After 2 hours incubation at room temperature, fluorescence readout was measured with a Pelkin Elmer multiple plate reader VICTOR Nivo.
Excitation was from over a range of 245-395 nm, and emission from the donor (emission 1) was detected at […] and emission from the acceptor (emission 2) was detected at (606.5-623.5) nm. The HTRF ratio was calculated using the formula: (emission 1 @665 nm/emission 2 @620 nm)×10000. Thus, compounds blocking KRAS-G12C/SOS1 interaction will cause a reduction in HTRF signal ratio. The IC50 values were then calculated with the Graph pad Prism software.

[2] = tested on: pERK in Hela cells; experiment: Phospho-ERK (p-ERK) assay in Hela cells; type: cell-based; settings: β-actin normalized
Procedure: This Example illustrates that exemplary compounds of the present invention prevent KRas-mediated GTP nucleotide exchange mediated by SOS1 to inhibit KRas activity, thereby inhibiting the generation of the downstream effector pERK.
Hela cells (23,000/w) were seeded in a black clear flat bottom 96-well cell culture plate (Corning, #3904) and incubated at 37° C. overnight. At day 2, cells were dosed with compounds of Formula (I) with a 10 μM starting concentration and serially diluted 3× for a total of 9 concentrations. The cells were incubated for 1 hour with the compounds solubilized in DMSO at 37° C. Cells were immediately fixed by adding 100 μL of 8% formaldehyde to all wells in a fume hood and the plates were incubated for 1 hr at room temperature. The formaldehyde was discarded from the plates and washed 5 times and each time for 5 min with 200 μL of Triton Washing Solution (0.1% Triton in PBS) each time to permeabilize the cells. Cells were then blocked with 150 μL of Odyssey blocking buffer (LI-COR Biosciences #927-50010) at room temperature on a shaker. The blocking buffer was discarded and 50 μL of primary antibodies pERK (cell signaling Technology #4370; Rabbit, 1:500) and β-actin (AF5001; Mouse, 1:2000) diluted in Odyssey blocking buffer was added. The plates were incubated overnight at 4° C. on a shaker.
On day 3, the primary antibody solution was removed. Each plate was washed 5× times with 200 μL of 1×PBST (PBS+0.1% Tween 20) and incubated with 50 μL of secondary antibodies: Anti-Rabbit (LI-COR Biosciences #926-32211) and Anti-Mouse (LI-COR Biosciences #68070) at 1:1000 dilution in Odyssey blocking buffer at room temperature on a shaker for 1 hour (protected from light). The secondary antibody solution as removed and each plate was washed with PBST 5× times. Any liquid remaining was discarded and the plate was imaged using the Licor Odyssey machine according to the manufacturer's instruction, using a set focus length at 3.5 mm and both 800 nm and 700 nm filters. The 3-actin normalized scan values for each well were divided by the average of vehicle wells to get the % of p-ERK inhibition. The IC50 values were then calculated with the Graph pad Prism software. In general, p-ERK IC50 data are in line with the PPI IC50 data.

[3] = Homo sapiens, Table 1, 1 hour with compound

KRAS-G12C/SOS1 interaction, sequence (Q07889 whole entry, stated change not applied): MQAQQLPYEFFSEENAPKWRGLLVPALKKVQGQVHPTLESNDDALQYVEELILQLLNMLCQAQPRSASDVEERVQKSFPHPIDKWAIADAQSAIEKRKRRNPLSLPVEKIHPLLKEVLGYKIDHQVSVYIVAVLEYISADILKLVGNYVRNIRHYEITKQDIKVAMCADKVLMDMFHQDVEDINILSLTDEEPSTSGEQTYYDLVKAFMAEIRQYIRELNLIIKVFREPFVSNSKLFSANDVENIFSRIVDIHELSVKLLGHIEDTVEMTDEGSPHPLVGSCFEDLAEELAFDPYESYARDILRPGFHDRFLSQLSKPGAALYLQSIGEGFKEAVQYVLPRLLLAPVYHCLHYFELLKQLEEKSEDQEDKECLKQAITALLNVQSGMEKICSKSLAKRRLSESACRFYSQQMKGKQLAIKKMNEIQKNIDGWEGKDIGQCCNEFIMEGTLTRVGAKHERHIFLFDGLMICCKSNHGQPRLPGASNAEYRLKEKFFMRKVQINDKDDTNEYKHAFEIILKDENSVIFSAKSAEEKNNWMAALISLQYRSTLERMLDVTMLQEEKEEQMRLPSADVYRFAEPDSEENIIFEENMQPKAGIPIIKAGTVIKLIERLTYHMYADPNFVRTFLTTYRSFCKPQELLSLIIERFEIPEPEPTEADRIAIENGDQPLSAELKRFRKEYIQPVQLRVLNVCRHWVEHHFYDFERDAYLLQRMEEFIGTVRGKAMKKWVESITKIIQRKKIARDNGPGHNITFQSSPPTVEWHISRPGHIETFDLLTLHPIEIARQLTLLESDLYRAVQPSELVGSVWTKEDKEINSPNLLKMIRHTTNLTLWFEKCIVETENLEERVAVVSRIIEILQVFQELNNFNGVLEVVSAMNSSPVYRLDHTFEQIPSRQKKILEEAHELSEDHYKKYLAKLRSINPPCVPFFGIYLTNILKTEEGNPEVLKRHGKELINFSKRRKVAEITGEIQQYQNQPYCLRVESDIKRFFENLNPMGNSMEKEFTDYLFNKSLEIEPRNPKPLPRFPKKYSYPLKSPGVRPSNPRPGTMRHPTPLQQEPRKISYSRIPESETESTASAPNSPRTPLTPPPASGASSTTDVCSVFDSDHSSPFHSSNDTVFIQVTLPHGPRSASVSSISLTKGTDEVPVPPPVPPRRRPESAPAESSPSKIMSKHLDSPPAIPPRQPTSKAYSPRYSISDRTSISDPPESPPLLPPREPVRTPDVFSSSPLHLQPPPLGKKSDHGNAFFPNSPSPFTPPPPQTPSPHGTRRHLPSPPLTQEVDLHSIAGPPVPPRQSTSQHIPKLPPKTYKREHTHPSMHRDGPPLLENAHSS

C[C@@H](Nc1ncnc2c1cc(C(=O)N1C3CC1CN(C)C3)c1ncnn12)c1cccc(C(F)F)c1F [Example 47]
IC50 ([1]; read-out: PPI Assay IC50): < 100 nM
IC50 [2, 3]: > 100 nM

Cc1nc(N[C@H](C)c2cccc(C(F)F)c2F)c2cc(C(=O)N(C)C)c3nncn3c2n1 [Example 50, (R)-4-((1-(3-(difluoromethyl)-2-fluorophenyl)ethyl)amino)-N,N,2-trimethyl-[1,2,4]triazolo[4′,3′:1,6]pyrido[2,3-d]pyrimidine-6-carboxamide]
IC50 ([1]; read-out: PPI Assay IC50): < 100 nM
IC50 [2, 3]: > 100 nM

Cc1nc(N[C@H](C)c2cccc(C(F)F)c2F)c2cc(C(=O)N3CC4(COC4)C3)c3nncn3c2n1 [Example 51]
IC50 ([1]; read-out: PPI Assay IC50): < 100 nM
IC50 [2, 3]: > 100 nM

Cc1nc(N[C@H](C)c2cccc(C(F)F)c2F)c2cc(C(=O)N(C)C)c3nnnn3c2n1 [Example 55, (R)-6-((1-(3-(difluoromethyl)-2-fluorophenyl)ethyl)amino)-N,N,8-trimethyltetrazolo[1′,5′:1,6]pyrido[2,3-d]pyrimidine-4-carboxamide]
IC50 ([1]; read-out: PPI Assay IC50): < 100 nM
IC50 [2, 3]: > 100 nM

Cc1nc(N[C@H](C)c2cccc(C(F)F)c2F)c2cc(C(=O)N3CCOCC3)c3nnnn3c2n1 [Example 58]
IC50 ([1]; read-out: PPI Assay IC50): < 100 nM
IC50 [2, 3]: < 100 nM

Cc1nc(N[C@H](C)c2cccc(C(F)F)c2F)c2cc(C(=O)N3CCCC34CCOC4)c3nnnn3c2n1 (stereo partly shown) [Example 60]
IC50 ([1]; read-out: PPI Assay IC50): < 100 nM
IC50 [2, 3]: > 100 nM

Cc1nc(N[C@H](C)c2cccc(C(F)F)c2F)c2cc(C(=O)N3CC4(COC4)C3)c3nnnn3c2n1 [Example 62]
IC50 ([1]; Table 1 (PPI IC50 < 100 nM), Tag1-SOS1 / Tag2-KRAS-G12C, HTRF, 10 μM GTP, read-out: PPI Assay IC50): < 100 nM
IC50 ([2]; Table 1, 1 hour with compound): > 100 nM

Cc1nc(N[C@H](C)c2cccc(C(F)F)c2F)c2cc(C(=O)N3C4CC3CN(C)C4)c3nnnn3c2n1 [Example 66]
IC50 ([1]; read-out: PPI Assay IC50): < 100 nM
IC50 [2, 3]: > 100 nM

CC(=O)N1CCC(c2cc3c(N[C@H](C)c4cccc(C(F)F)c4F)nc(C)nc3n3cnnc23)CC1 [Example 67, (R)-1-(4-(4-((1-(3-(difluoromethyl)-2-fluorophenyl)ethyl)amino)-2-methyl-[1,2,4]triazolo[4′,3′:1,6]pyrido[2,3-d]pyrimidin-6-yl)piperidin-1-yl)ethan-1-one]
IC50 ([1]; read-out: PPI Assay IC50): < 100 nM
IC50 [2, 3]: > 100 nM

COCC(=O)N1CCC(c2cc3c(N[C@H](C)c4cccc(C(F)F)c4F)nc(C)nc3n3cnnc23)CC1 [Example 68]
IC50 ([1]; read-out: PPI Assay IC50): < 100 nM
IC50 [2, 3]: > 100 nM

Cc1nc(N[C@H](C)c2cccc(C(F)F)c2F)c2cc(C3CCN(C(=O)N(C)C)CC3)c3nncn3c2n1 [Example 69]
IC50 ([1]; read-out: PPI Assay IC50): < 100 nM
IC50 [2, 3]: > 100 nM

CCS(=O)(=O)N1CCC(c2cc3c(N[C@H](C)c4cccc(C(F)F)c4F)nc(C)nc3n3cnnc23)CC1 [Example 70]
IC50 [1]: > 100 nM
IC50 ([2]; Homo sapiens, Table 2, 1 hour with compound): > 100 nM

Cc1nc(N[C@H](C)c2cccc(C(F)F)c2F)c2cc(C3CCN(CCS(C)(=O)=O)CC3)c3nncn3c2n1 [Example 71]
IC50 ([1]; read-out: PPI Assay IC50): < 100 nM
IC50 [2, 3]: > 100 nM

Cc1nc(N[C@H](C)c2cccc(C(F)F)c2F)c2cc(N3CCOCC3)c3nncn3c2n1 [Example 74, (R)—N-(1-(3-(difluoromethyl)-2-fluorophenyl)ethyl)-2-methyl-6-morpholino-[1,2,4]triazolo[4′,3′:1,6]pyrido[2,3-d]pyrimidin-4-amine]
IC50 ([1]; read-out: PPI Assay IC50): < 100 nM
IC50 [2, 3]: > 100 nM

Cc1nc(N[C@H](C)c2cccc(C(F)F)c2F)c2cc(N3CCS(=O)(=O)CC3)c3nncn3c2n1 [Example 76]
IC50 ([1]; read-out: PPI Assay IC50): < 100 nM
IC50 [2, 3]: > 100 nM

C[C@@H](Nc1ncnc2c1cc(N1CCOCC1)c1nncn12)c1cccc(C(F)F)c1F [Example 79]
IC50 ([1]; read-out: PPI Assay IC50): < 100 nM
IC50 [2, 3]: < 100 nM

Cc1nc(N[C@H](C)c2cc(N)cc(C(F)(F)F)c2)c2cc(N3CCOCC3)c3nncn3c2n1 [Example 85]
IC50 ([1]; read-out: PPI Assay IC50): < 100 nM
IC50 [2, 3]: < 100 nM

C[C@@H](Nc1ncnc2c1cc(N1CCOCC1=O)c1nncn12)c1cc(N)cc(C(F)(F)F)c1 [Example 86]
IC50 ([1]; read-out: PPI Assay IC50): < 100 nM
IC50 [2, 3]: < 100 nM

C[C@@H](Nc1ncnc2c1cc(O[C@H]1CCOC1)c1nncn12)c1cccc(C(F)F)c1F [Example 88]
IC50 ([1]; read-out: PPI Assay IC50): < 100 nM
IC50 [2, 3]: < 100 nM

Cc1nc(N[C@H](C)c2cccc(C(F)F)c2F)c2cc(N3CCOCC3)c3nnnn3c2n1 [Example 91, (R)—N-(1-(3-(difluoromethyl)-2-fluorophenyl)ethyl)-8-methyl-4-morpholinotetrazolo[1′,5′:1,6]pyrido[2,3-d]pyrimidin-6-amine]
IC50 ([1]; read-out: PPI Assay IC50): < 100 nM
IC50 [2, 3]: < 100 nM

CC(=O)N1CCN(c2cc3c(N[C@H](C)c4cccc(C(F)F)c4F)nc(C)nc3n3nnnc23)CC1 [Example 92]
IC50 ([1]; read-out: PPI Assay IC50): < 100 nM
IC50 [2, 3]: < 100 nM

Cc1nc(N[C@H](C)c2cccc(C(F)F)c2F)c2cc(N3CCS(=O)(=O)CC3)c3nnnn3c2n1 [Example 93]
IC50 ([1]; read-out: PPI Assay IC50): < 100 nM
IC50 [2, 3]: > 100 nM

Cc1nc(N[C@H](C)c2cc(N)cc(C(F)(F)F)c2)c2cc(N3CCOCC3)c3nnnn3c2n1 [Example 95]
IC50 ([1]; read-out: PPI Assay IC50): < 100 nM
IC50 [2, 3]: < 100 nM

C[C@@H](Nc1ncnc2c1cc(N1CCS(=O)(=O)CC1)c1nnnn12)c1cccc(C(F)F)c1F [Example 96]
IC50 ([1]; read-out: PPI Assay IC50): < 100 nM
IC50 [2, 3]: > 100 nM

C[C@@H](Nc1ncnc2c1cc(N1CC(C(=O)N(C)C)C1)c1nnnn12)c1cccc(C(F)F)c1F [Example 97]
IC50 ([1]; read-out: PPI Assay IC50): < 100 nM
IC50 [2, 3]: > 100 nM

C[C@@H](Nc1ncnc2c1cc(N1CCOCC1)c1nnnn12)c1cccc(C(F)F)c1F [Example 98]
IC50 ([1]; read-out: PPI Assay IC50): < 100 nM
IC50 [2, 3]: < 100 nM

CC(=O)N1CCN(c2cc3c(N[C@H](C)c4cccc(C(F)F)c4F)ncnc3n3nnnc23)CC1 [Example 99]
IC50 ([1]; read-out: PPI Assay IC50): < 100 nM
IC50 [2, 3]: < 100 nM

CC(=O)N1CC=C(c2cc3c(N[C@H](C)c4cccc(C(F)F)c4F)nc(C)nc3n3cnnc23)CC1 [Example 100, (R)-1-(4-(4-((1-(3-(difluoromethyl)-2-fluorophenyl)ethyl)amino)-2-methyl-[1,2,4]triazolo[4′,3′:1,6]pyrido[2,3-d]pyrimidin-6-yl)-3,6-dihydropyridin-1(2H)-yl)ethan-1-one]
IC50 ([1]; read-out: PPI Assay IC50): < 100 nM
IC50 [2, 3]: > 100 nM

CC(=O)N1CC=C(c2cc3c(N[C@H](C)c4cccc(C(F)F)c4F)ncnc3n3cnnc23)CC1 [Example 101]
IC50 ([1]; read-out: PPI Assay IC50): < 100 nM
IC50 [2, 3]: < 100 nM
